Experimental data from patent US10357533B2, “Drug for the effective control of acute and or chronic pain and a method for its administration” (PVP LABS PTE. LTD., priority 2016, dated 2019).
Where a SMILES comes first, the peptide text is derived from it. [ ]: non-standard residue; d: D form.

How the values were obtained:
rats = test: Hot plate test in rats; assay type: in vivo; conditions: for HPL, s (Mean ± SEM): hot plate 52° C.
Experimental: The “Hot Plate” test is based on the reflex that rat licking its' feet when the animal comes in contact with a hot surface. The device is a metal surface with a diameter of 30 cm whose temperature is controlled by software. The site is enclosed by a transparent fence with a height of 40 cm. The temperature of the metal pad was set at exactly 52° C. When placing the animal on the surface, you measure the time until the moment when the animal licks its' foot. When analgesics are administered, the time before the rat licks its' feet increases. The licking latency (HPL) of 40 seconds was used as the maximum allowable time of stimulation. The study was conducted on male rats weighing 160-180 g, 6 animals per dose.

patients = test: Clinical application in patients with severe pain; assay type: in vivo, humans
Experimental: The use of the peptide compound in patients who have been informed about the drug and who have given their consent
When the morphine drug therapy was once again possible, the use of the experimental prototype of the drug was stopped.
Based on the extrapolation of animal data for dosages for humans, we decided to use 0.7-3 mg of the active tetrapeptide in a single dose, administered by subcutaneous injection, and under the supervision of a specialist. The drug was packaged in lyophilized form of 3 mg per vial before use and dissolved in 1-3 ml of water for injections.
The following parameters were recorded:
1. Time of onset of analgesic effect, duration of effect.
Dynamics of pain on a numerical scale of 0-10: 0—no pain, 10—unbearable pain. The patient makes regular notes on the intensity level of pain during treatment to assess the analgesic effect. Separately, the intensity of pain is noted before receiving the experimental prototype preparation, and during its' administration. 2. The physical activity of the patient. Measured on a scale: 1—normal activity, 2—activity is reduced; the patient is able to go to their own doctor, 3—bed rest at least 50% of the day, 4—bed rest for more than 50% of the day, 5—complete bed rest. 3. Subjective feelings of the patient A change of perception, mood, presence/absence of euphoria or dysphoria, discomfort in the body, feelings in the digestive tract.
Basically, the study was conducted in patients with somatic and internal types of pain, though often it was not possible to accurately classify the type of pain.

mice = test: Tail flick test in mice, dose-dependent analgesic effect; assay type: in vivo
Experimental: This stage involved selecting the effective doses of peptide compound in the tail flick test in mice after a single subcutaneous administration of the substance at doses of 0.01, 0.05, 0.1, 0.5, 0.7, 1 and 5 mg/kg. Tail flick method is based on a spinal flexion reflex in response to a progressively increasing effect of thermal radiation on the surface of skin. A pain stimulus was applied to the tail locally, by the action of thermal radiation, using a TSE Systems analgesiometer (Germany). Stimulus intensity was set, corresponding to an increase in temperature from 30° C. to 60° C. over 13 seconds. The tail flick latency (TFL) of 13 seconds was used as the maximum allowable time of stimulation. The mice in test groups were given peptide compound, and control group mice were given the solvent (water for injections) by subcutaneous. Tail flick latency was evaluated 40 minutes after the administration of the study substance or solvent. The analysis of experimental results involved calculating the maximum possible effect (MPE).

[1] = 0.05 mg/kg subcutaneous, 40 minutes
[2] = 0.1 mg/kg subcutaneous, 40 minutes
[3] = 0.5 mg/kg subcutaneous, 40 minutes
[4] = 0.7 mg/kg subcutaneous, 40 minutes
[5] = 1 mg/kg subcutaneous, 40 minutes
[6] = 5 mg/kg subcutaneous, 40 minutes

## N=C(N)NCCC[C@@H](NC(=O)[C@@H](N)Cc1ccc(O)cc1)C(=O)N[C@@H](Cc1ccccc1)C(=O)NCC(N)=O [Peptide compound, H-Tyr-D-Arg-Phe-Gly-NH2] (H-Y[dR]FG-NH2)
rats; 0.1 mg/kg subcutaneous
  Proportion of the maximum possible effect (MPE), %: 38.2%
  HPL, s (Mean ± SEM): 26.01 ± 8.8 s
rats; 5 mg/kg subcutaneous
  Proportion of the maximum possible effect (MPE), %: 98.3%
  HPL, s (Mean ± SEM): 39.33 ± 1.63 s
rats; hot plate
  dose at which the effect of full analgesia was observed: 5 mg/kg
  higher level of activity in comparison with morphine: ~10 times
rats; hot plate, proposed drug 0.1 mg/kg
  dose of morphine with corresponding analgesic efficacy: 5 mg/kg
patients; Patient 1, 3 mg 2 times a day
  duration of analgesic effect: 8 to 12 h
patients; Patient 1, 3 mg 2 times a day, first injection
  subjective feelings / negative effects: very light dysphoric effect for 10-15 minutes
patients; Patient 1, pain before 6-9, 3 mg 2 times a day
  degree of analgesia, pain scale 0-10: 1-3
patients; Patient 1, pancreatic cancer stage IV, pain 6-9, 3 mg 2 times a day subcutaneous, 5 days
  Time of analgesia (onset): 10 to 15 min
patients; Patient 2
  duration of analgesic effect: 6 to 12 h
  negative effects: No negative effects were detected
patients; Patient 2, 2 mg three times first day, then 1.5 mg 2 times a day
  degree of analgesia, pain scale 0-10: 2-3
patients; Patient 2, colon cancer stage IV, 2 mg three times first day, then 1.5 mg 2 times a day, 4 days
  Time of analgesia (onset): 10 to 15 min
patients; Patient 3
  duration of analgesic effect: 8 to 10 h
  negative effects: No negative effects were detected
patients; Patient 3, colon cancer stage IV, pain 7-10, 1.5 mg 2 times a day, 4 days
  Time of analgesia (onset): 10 to 15 min
patients; Patient 3, pain before 7-10, 1.5 mg 2 times a day
  degree of analgesia, pain scale 0-10: 1-3
patients; Patient 4
  duration of analgesic effect: 8 to 10 h
  negative effects: No negative effects were detected
patients; Patient 4, breast cancer stage IV, pain 7-10, 1.5 mg 2 times a day, 5 days
  time of analgesic effect (onset): 10 to 20 min
patients; Patient 4, pain before 7-10, 1.5 mg 2 times a day
  degree of analgesia, pain scale 0-10: 1-3
patients; Patient 5
  duration of analgesic effect: 8 to 10 h
  negative effects: No negative effects were detected
patients; Patient 5, breast cancer stage IV, pain 7-8, 0.7 mg two times a day, 6 days
  Time of analgesia (onset): 10 to 15 min
patients; Patient 5, pain before 7-8
  degree of analgesia, pain scale 0-10: 1-3
patients; Patient 6
  duration of analgesic effect: 8 to 12 h
  negative effects: No negative effects were detected
patients; Patient 6, compression fracture of a vertebra, pain 7-8, 1.5 mg 2 times a day, 2 days
  Time of analgesia (onset): 10 to 15 min
patients; Patient 6, pain before 7-8
  degree of analgesia, pain scale 0-10: 1-3
patients; all of the cases (Patients 1-6)
  adverse reactions (impaired consciousness, euphoria or dysphoria, digestive tract, respiratory depression, heart disorders): no adverse reactions
mice; 0.01 mg/kg subcutaneous, 40 minutes
  Proportion of the maximum possible effect (MPE), %: 18.7%
mice; 0.01 mg/kg subcutaneous, 40 minutes after administration
  TFL, s (Mean ± SEM): 5.89 ± 0.19 s
mice; [1]
  Proportion of the maximum possible effect (MPE), %: 42.5%
  TFL, s (Mean ± SEM): 7.97 ± 0.78 s
mice; [2]
  Proportion of the maximum possible effect (MPE), %: 47.0%
  TFL, s (Mean ± SEM): 8.36 ± 0.68 s
mice; [3]
  Proportion of the maximum possible effect (MPE), %: 55.7%
  TFL, s (Mean ± SEM): 9.12 ± 0.92 s
mice; [4]
  Proportion of the maximum possible effect (MPE), %: 57.5%
  TFL, s (Mean ± SEM): 10.15 ± 0.74 s
mice; [5]
  Proportion of the maximum possible effect (MPE), %: 94.6%
  TFL, s (Mean ± SEM): 12.53 ± 0.24 s
mice; [6]
  Proportion of the maximum possible effect (MPE), %: 100%
  TFL, s (Mean ± SEM): 13.00 ± 0 s
mice; tail flick
  higher level of activity in comparison with morphine: 10-15 times
mice; tail flick, peptide compound 0.1 mg/kg dose
  dose of morphine with close activity: ~4 mg/kg
mice; tail flick, peptide compound 0.5 mg/kg dose
  dose of morphine with close activity: 7 to 8 mg/kg
mice; tail flick, subcutaneous
  dose at which the effect of full analgesia was observed: 1 mg/kg
